The test system of data set [1] is Pseudomonas aeruginosa (PAO1). The data set can be described thus: MIC broth microdilution (CLSI), Luria Broth. Type of data set: cell-based. The following applies: Table 1, PAO1, read-out: Pseudomonas aeruginosa MIC. The procedure, abridged:
(§1)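 Two-fold serial dilutions (0.10–100 μM, eleven points) in Luria Broth, each well inoculated with 10^5 cells from log-phase culture (OD600 0.5), per CLSI broth microdilution. DMSO vehicle up to 1% v/v as negative control; kanamycin positive control for the staphylococci.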

In data set [2] the test system is Staphylococcus aureus (ATCC 25923). The data set can be described thus: MIC broth microdilution (CLSI), Luria Broth. Type of data set: cell-based. The following applies: Staphylococcus aureus, ATCC25923, Table 1, ATCC 25923, read-out: Staphylococcus aureus MIC. The procedure, abridged: as §1
On the technique in general: Dilution methods test growth across graded concentrations, often in twofold steps.

Data set [3] relates to Staphylococcus epidermidis (ATCC 12228). The data set can be described thus: MIC broth microdilution (CLSI), Luria Broth. Type of data set: cell-based. To be noted: ATCC12228, Table 1, ATCC 12228, read-out: Staphylococcus epidermidis MIC. The method in brief: as §1
A short description of data set [4]: Stability of DMSO stock solutions. Format: physicochemical. The procedure: Compound storage. Solid stocks of the compounds described herein were stored at −80° C. in vials sealed with PARAFILM. Between 2.0 and 4.5 milligrams of each compound was weighed out, and a 10 mM DMSO stock solution of each compound were prepared. DMSO stock solutions were stored at room temperature in the dark (e.g., wrapped in aluminum foil). At this concentration, a few compounds required gentle heating to completely solubilize. DMSO stock solutions were not subjected to any freeze-thaw cycles to prevent compound breakdown. The compounds were stable in DMSO for several weeks under these mild storage conditions, with the exception of pyocyanin. Pyocyanin is unstable in DMSO at room temperature after one day. […] DMSO stock solutions of about 2 milligrams of pyocyanin were made fresh each day. The hydrolysis stability of select compounds was also tested, e.g., by subjecting these compounds to conditions mimicking the biofilm assays described herein. In one set of exemplary experiments, 3.2 to 4.5 mgs of each of compounds 18a, 12a, 23a, and 21 were treated with 1 mL of sterile water to form a mixture. […] After 24 hours, each of the mixtures was extracted with dichloromethane and evaluated, using TLC and NMR, for hydrolysis of each of compounds 18a, 12a, 23a, and 21 to compound 11.

Another data set has as its system MRSA-2. The data set can be described thus: MIC against MRSA-2. Format: cell-based. To be noted: Staphylococcus aureus, read-out: MIC against MRSA-2. Here is the method: Antibiotic Susceptibility Tests (MIC Assay Protocol). The minimum inhibitory concentration (MIC) for each compound described herein was determined by the broth microdilution method as recommended by the Clinical and Laboratory Standards Institute (CLSI) (Clinical and Laboratory Standards Institute. 2009. Methods for dilution antimicrobial susceptibility tests for bacteria that grow aerobically; approved standard, eighth edition (M7-A8)). In a 96-well plate, eleven two-fold serial dilutions of each compound were made in a final volume of 100 μL Luria Broth (one column served as a blank; see the MIC assay described herein). Each well was inoculated with 10^5 bacterial cells at the initial time of incubation, prepared from a fresh log phase culture (OD600 of 0.5). […] The concentration range tested for each compound during this study was 0.10 to 100 μM. DMSO served as the vehicle and negative control in each microdilution MIC assay. DMSO was serially diluted at the same concentration as the compounds with a top concentration of 1% v/v. Bacterial strains used: Staphylococcus aureus (ATCC 25923), Staphylococcus epidermidis (ATCC 12228) and Pseudomonas aeruginosa (PAO1). […]
(§2) Vancomycin's activity against MRSA-2. Vancomycin was also evaluated against MRSA-2 since vancomycin has been considered to be the drug of last resort against MRSA infections.

The next data set deals with MRSA-2 biofilms. The data set can be described thus: Biofilm eradication assay (MBEC). Format: cell-based, Staphylococcus aureus. The following applies: for Biofilm Eradication MBEC: MRSA-2. Here is the method:
Biofilm eradication assays. […] The protocol for the biofilm eradication assays was essentially the same as the protocols reported in Eun et al., J. Am. Chem. Soc., 2012, 134, 11322 and Ceri et al., J. Clin. Microbiol., 1999, 37, 1771. Biofilm eradication assays were essentially biofilm dispersion assays with the addition of a final treatment with fresh media (and incubation at 37° C. for 24 hours) instead of crystal violet staining. This final incubation allowed viable cells within the biofilm to grow. At the end of this final incubation in biofilm eradication assays, microtiter wells void of turbidity represented eradicated biofilms, and the lowest concentration at which no visible growth was observed was referred to as the minimum biofilm eradication concentration (MBEC). Potent biofilm eradicating small molecules are extremely rare (Fletcher et al., Tetrahedron, 2014, 70, 6373; Jennings et al., ChemBioChem, 2014, 15, 2211). For these experiments, MRSA-2 was selected as the model since MRSA-2 is a multidrug-resistant, biofilm-forming clinical isolate of Staphylococcus aureus (Priyaja et al., Cytotechnol., 2014, doi: 10.1007/s10616-014-9765-5).

Another data set has as its system S. aureus ATCC 29213. The data set can be described thus: MIC against S. aureus ATCC 29213. The following applies: Staphylococcus aureus, ATCC29213. Type of data set: cell-based. Here is the method:
as §2

The next data set is described as follows: Solubility observation. Type of data set: physicochemical. The procedure: 6,9-Dibromophenazine-1-carboxylic acid (18) and methyl-6,9-dibromophenazine-1-carboxylate (35). 2-((2,5-Dibromophenyl)amino)-3-nitrobenzoic acid (497 mg, 1.16 mmol) was dissolved in 19 mL 2 N aqueous sodium hydroxide and treated with sodium borohydride (131 mg, 3.47 mmol). The resulting reaction mixture was then refluxed for 1.5 hours. After this time, the reaction was made acidic with 2 N aqueous hydrochloric acid, and the resulting precipitate was filtered. The filter cake was then washed with hot chloroform to afford 143 mg (32% yield) of 6,9-dibromophenazine-1-carboxylic acid 18 as a yellow-green solid. […] A small portion of this material was converted to methyl ester 35 for characterization purposes using the following procedure. To a stirred suspension of 6,9-dibromophenazine-1-carboxylic acid (3.7 mg, 0.0097 mmol) in 0.4 mL dimethylformamide was sequentially added potassium carbonate (22 mg, 0.16 mmol) and one drop of iodomethane. The reaction was allowed to stir overnight at room temperature. The reaction was then transferred to a separatory funnel and partitioned between ethyl acetate and water. The organic layer was then washed with brine and collected. […] The crude material was taken up in chloroform and passed over a silica plug to furnish 3.8 mg (quantitative yield) of methyl-6,9-dibromophenazine-1-carboxylate 35 as a yellow solid.

The values below come from patent US9856225B2, “Substituted phenazines as antimicrobial agents” (University of Florida Research Foundation, Incorporated, priority 2013, dated 2018).

Broadly, the MIC is the smallest concentration in the dilution series that meets the test's criterion for growth inhibition.

Values after ≈ are worked out from the molar mass of the structure shown. Values joined by “and” are separate entries in the source; they are usually repeats but may differ in a detail not shown here. Identical values can stand only once. Like-named read-outs stand apart in the source and are kept apart here. Marks after values point to notes of the source that are not given here.

On to `Cn1c2cccc(=O)c-2nc2ccccc21` [Compound 1, Pyocyanin, reference compound], for which the MIC in data set [1] is > 100 µM; in data set [2] (range tested 0.10 to 100 μM) it was 50 µM; in data set [2], 10.6 µg/mL; in data set [3], 50 µM and 10.6 µg/mL. For the same molecule, the “stability in DMSO” value in data set [4] (10 mM DMSO stock, room temperature, dark) is recorded as “unstable”. In addition, the “decomposition in d6-DMSO (NMR)” value in data set [4] (after 8 hours at room temperature) is listed as “significant decomposition”.

For the molecule `O=C(O)c1cccc2nc3cccc(Cl)c3nc12` [Compound 10, 9-Chlorophenazine-1-carboxylic acid], the MIC in data set [1] is > 100 µM; in data set [2] (range tested 0.10 to 100 μM), 50 µM; in data set [2], 13 µg/mL; in data set [3], 50 µM and 13 µg/mL.

`NC(=O)c1cccc2nc3ccccc3nc12` [Compound 4, Phenazine-1-carboxamide, reference compound]: the MIC in data set [1] is > 100 µM; in data set [2] (range tested 0.10 to 100 μM) it was > 100 µM; in data set [2] it was > 22.4 µg/mL; in data set [3] it was > 100 µM and > 22.4 µg/mL.

`COc1ccc2nc3c(C(=O)O)cccc3nc2c1` [Compound 8, 7-Methoxyphenazine-1-carboxylic acid]: the MIC was > 100 µM in data set [1]; > 100 µM in data set [2] (range tested 0.10 to 100 μM); > 25.5 µg/mL in data set [2]; > 100 µM and > 25.5 µg/mL in data set [3].

Consider `CCc1ccc2nc3c(C(=O)O)cccc3nc2c1` [Compound 13, 7-Ethylphenazine-1-carboxylic acid], for which the MIC is > 100 µM in data set [1]; > 100 µM in data set [2] (range tested 0.10 to 100 μM); > 25.3 µg/mL in data set [2]; > 100 µM and > 25.3 µg/mL in data set [3].

With `Oc1c(Br)ccc2nc3ccccc3nc12` [Compound 5, 2-Bromophenazin-1-ol, reference compound], the MIC was > 100 µM in data set [1]; 6.25 µM in data set [2] (range tested 0.10 to 100 μM); 1.72 µg/mL in data set [2]; 6.25 µM and 1.72 µg/mL in data set [3].

In the case of `O=C(O)c1cccc2nc3ccccc3nc12` [Compound 3, Phenazine-1-carboxylic acid, reference compound], the MIC is > 100 µM in data set [1]; > 100 µM in data set [2] (range tested 0.10 to 100 μM); > 22.5 µg/mL in data set [2]; > 100 µM and > 22.5 µg/mL in data set [3].

Regarding `CN[C@H](CC(C)C)C(=O)N[C@H]1C(=O)N[C@@H](CC(N)=O)C(=O)N[C@H]2C(=O)N[C@H]3C(=O)N[C@H](C(=O)N[C@H](C(=O)O)c4cc(O)cc(O)c4-c4cc3ccc4O)[C@H](O)c3ccc(c(Cl)c3)Oc3cc2cc(c3O[C@@H]2O[C@H](CO)[C@@H](O)[C@H](O)[C@H]2O[C@H]2C[C@](C)(N)[C@H](O)[C@H](C)O2)Oc2ccc(cc2Cl)[C@H]1O` [Vancomycin, reference compound], the figures for the MIC in the data set with MRSA-2 and in the data set with S. aureus ATCC 29213 were 0.78 µM (≈ 1.13 µg/mL) and 0.39 to 0.78 µM (≈ 0.565 to 1.13 µg/mL), respectively. Also, the “Biofilm Eradication MBEC” value in the data set with MRSA-2 biofilms is given as >2,000^d μM; in the data set on MRSA-2 biofilms (listed as vancomycin), > 2,000 μM. Moreover, the “MBEC:MIC ratio” value with MRSA-2 biofilms (MRSA-2 biofilm vs planktonic) is given as > 2,564.

As to `O=C(O)c1cccc2nc3c(Br)ccc(Br)c3nc12` [Compound 18, 6,9-Dibromophenazine-1-carboxylic acid], the MIC is > 100 µM in data set [1], > 100 µM in data set [2] (range tested 0.10 to 100 μM) and > 38.3 µg/mL in data set [2]. In addition, in “Solubility observation”, the “solubility (in words)” value is “extremely low solubility”.
